Source: PubChem BioAssay AID1963862 (Molecular Pharmacology Branch, DTP, NCI, 2024)

Tested on: KRAS patient-derived spheroids with HUVEC/MSC, viability
Test: Anticancer human tumor 941728-121-R-J1-PDC patient-derived lung adenocarcinoma cell line growth inhibition [KRAS2]
Settings: for IC50: curve of first compound; for viability, T/C: stronger effect = lower value
In short: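 Combination screen of spheroid viability in tumor-cell co-cultures with endothelial (HUVEC) and mesenchymal stem cell stroma. Each agent was tested in half-log dilutions, topping at clinical Cmax or at 10 microM without a known Cmax.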

[1] = second compound 0.0316 µM, first compound 0.0316 µM
[2] = second compound 0.0316 µM, first compound 0.1 µM
[3] = second compound 0.1 µM, first compound 0.0316 µM
[4] = second compound 0.1 µM, first compound 0.1 µM
[5] = second compound 0.316 µM, first compound 0.0316 µM
[6] = second compound 0.316 µM, first compound 0.1 µM
[7] = second compound 1 µM, first compound 0.0316 µM
[8] = second compound 1 µM, first compound 0.1 µM
[9] = second compound 3.16 µM, first compound 0.0316 µM
[10] = second compound 3.16 µM, first compound 0.1 µM
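Further: spheroids exposed to agents for seven days before readout.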

## CC(C)n1nc(-c2ccc3oc(N)nc3c2)c2c(N)ncnc21 + C=CC(=O)N1CCN(c2nc(OCC3CCCN3C)nc3c2CCN(c2cccc4cccc(C)c24)C3)CC1CC#N
Second compound 0.0316 µM
  IC50: < 0.316 nM
Second compound 0.1 µM
  IC50: < 0.316 nM
Second compound 0.316 µM
  IC50: < 0.316 nM
Second compound 1 µM
  IC50: < 0.316 nM
Second compound 3.16 µM
  IC50: < 0.316 nM
Second compound 0.0316 µM, first compound 0.000316 µM
  viability, T/C: 35.4%
Second compound 0.0316 µM, first compound 0.001 µM
  viability, T/C: 32.9%
Second compound 0.0316 µM, first compound 0.00316 µM
  viability, T/C: 24.6%
Second compound 0.0316 µM, first compound 0.01 µM
  viability, T/C: 17.3%
[1]
  viability, T/C: 11.5%
[2]
  viability, T/C: 11%
Second compound 0.1 µM, first compound 0.000316 µM
  viability, T/C: 35.3%
Second compound 0.1 µM, first compound 0.001 µM
  viability, T/C: 28.8%
Second compound 0.1 µM, first compound 0.00316 µM
  viability, T/C: 28%
Second compound 0.1 µM, first compound 0.01 µM
  viability, T/C: 15.9%
[3]
  viability, T/C: 11.1%
[4]
  viability, T/C: 12.5%
Second compound 0.316 µM, first compound 0.000316 µM
  viability, T/C: 38.2%
Second compound 0.316 µM, first compound 0.001 µM
  viability, T/C: 33.9%
Second compound 0.316 µM, first compound 0.00316 µM
  viability, T/C: 26.6%
Second compound 0.316 µM, first compound 0.01 µM
  viability, T/C: 16.8%
[5]
  viability, T/C: 13%
[6]
  viability, T/C: 9.77%
Second compound 1 µM, first compound 0.000316 µM
  viability, T/C: 33.1%
Second compound 1 µM, first compound 0.001 µM
  viability, T/C: 29%
Second compound 1 µM, first compound 0.00316 µM
  viability, T/C: 20%
Second compound 1 µM, first compound 0.01 µM
  viability, T/C: 11.9%
[7]
  viability, T/C: 9.99%
[8]
  viability, T/C: 10.3%
Second compound 3.16 µM, first compound 0.000316 µM
  viability, T/C: 2.26%
Second compound 3.16 µM, first compound 0.001 µM
  viability, T/C: 0.92%
Second compound 3.16 µM, first compound 0.00316 µM
  viability, T/C: 0.32%
Second compound 3.16 µM, first compound 0.01 µM
  viability, T/C: 0.8%
[9]
  viability, T/C: 0.12%
[10]
  viability, T/C: 0.23%

## CC1(C)CCC(CN2CCN(c3ccc(C(=O)NS(=O)(=O)c4ccc(NCC5CCOCC5)c([N+](=O)[O-])c4)c(Oc4cnc5[nH]ccc5c4)c3)CC2)=C(c2ccc(Cl)cc2)C1 + C=CC(=O)N1CCN(c2nc(OCC3CCCN3C)nc3c2CCN(c2cccc4cccc(C)c24)C3)CC1CC#N
Second compound 0.0316 µM
  IC50: < 31.6 nM
Second compound 0.1 µM
  IC50: < 31.6 nM
Second compound 0.316 µM
  IC50: < 31.6 nM
Second compound 1 µM
  IC50: < 31.6 nM
Second compound 3.16 µM
  IC50: < 31.6 nM
[1]
  viability, T/C: 26.6%
[2]
  viability, T/C: 26.4%
Second compound 0.0316 µM, first compound 0.316 µM
  viability, T/C: 26.4%
Second compound 0.0316 µM, first compound 1 µM
  viability, T/C: 24%
Second compound 0.0316 µM, first compound 3.16 µM
  viability, T/C: 6%
Second compound 0.0316 µM, first compound 10 µM
  viability, T/C: 4.38%
[3]
  viability, T/C: 26.5%
[4]
  viability, T/C: 23.7%
Second compound 0.1 µM, first compound 0.316 µM
  viability, T/C: 24.9%
Second compound 0.1 µM, first compound 1 µM
  viability, T/C: 25.1%
Second compound 0.1 µM, first compound 3.16 µM
  viability, T/C: 5.88%
Second compound 0.1 µM, first compound 10 µM
  viability, T/C: 2.8%
[5]
  viability, T/C: 25.2%
[6]
  viability, T/C: 25.5%
Second compound 0.316 µM, first compound 0.316 µM
  viability, T/C: 25%
Second compound 0.316 µM, first compound 1 µM
  viability, T/C: 25.8%
Second compound 0.316 µM, first compound 3.16 µM
  viability, T/C: 5.25%
Second compound 0.316 µM, first compound 10 µM
  viability, T/C: 3.74%
[7]
  viability, T/C: 22.6%
[8]
  viability, T/C: 21.4%
Second compound 1 µM, first compound 0.316 µM
  viability, T/C: 21.4%
Second compound 1 µM, first compound 1 µM
  viability, T/C: 21.4%
Second compound 1 µM, first compound 3.16 µM
  viability, T/C: 5.13%
Second compound 1 µM, first compound 10 µM
  viability, T/C: 1.61%
[9]
  viability, T/C: 0.12%
[10]
  viability, T/C: 0.13%
Second compound 3.16 µM, first compound 0.316 µM
  viability, T/C: 0.1%
Second compound 3.16 µM, first compound 1 µM
  viability, T/C: 0.09%
Second compound 3.16 µM, first compound 3.16 µM
  viability, T/C: 0.08%
Second compound 3.16 µM, first compound 10 µM
  viability, T/C: 0.12%
